{"source": "patent US9237747B2", "about": "“Herbicidal compositions comprising 4-amino-3-chloro-5-fluoro-6-(4-chloro-2-fluoro-3-methoxyphenyl) pyridine-2-carboxylic acid or a derivative thereof and insecticides” (priority 2013, dated 2016)", "key": {"[1]": {"test_system": "LEFCH", "assay": "whole plant or invertebrate", "format": "in vivo, Leptochloa chinensis", "protocol": "(§1) Seeds or nutlets of the desired test plant species were planted in a soil matrix prepared by mixing a loam or sandy loam soil (e.g., 28.6 percent silt, 18.8 percent clay, and 52.6 percent sand, with a pH of about 5.8 and an organic matter content of about 1.8 percent) and calcareous grit in an 80 to 20 ratio. The soil matrix was contained in plastic pots with a volume of 1 quart and a surface area of 83.6 square centimeters (cm^2). […] The plants were grown for 8-22 days in a greenhouse with an approximate 14 hour (h) photoperiod which was maintained at about 29° C. during the day and 26° C. during the night. Nutrients (Peters Excel® 15-5-15 5-Ca 2-Mg and iron chelate) were applied in the irrigation solution as needed and water was added on a regular basis. Supplemental lighting was provided with overhead metal halide 1000-Watt lamps as necessary. The plants were employed for testing when they reached the first through fourth true leaf stage.\n(§2) Treatments consisted of the acid or esters of 4-amino-3-chloro-6-(4-chloro-2-fluoro-3-methoxyphenyl)-5-fluoropyridine-2-carboxylic acid (Compound A), each formulated as an SC (suspension concentrate), and various insecticidal components alone and in combination. Forms of compound A were applied on an acid equivalent basis.\n(§3) For treatments comprised of formulated compounds, measured amounts of compounds were placed individually in 25 mL glass vials and diluted in a volume of 1.25% volume per volume (v/v) Agri-Dex® crop oil concentrate to obtain 12× stock solutions. […] Application solutions were prepared by adding an appropriate amount of each stock solution (e.g., 1 mL) and diluted to the appropriate final concentrations with the addition of […] of an aqueous mixture of 1.25% (v/v) crop oil concentrate so that the final spray solutions contained 1.25+/−0.05% (v/v) crop oil concentrate.\n(§4) As required, additional water and/or 97:3 v/v acetone/DMSO was added to individual application solutions so that the final acetone and DMSO concentrations of the application solutions being compared were 8.1% and 0.25%, respectively.\n(§5) All stock solutions and applications solutions were visually inspected for compound compatibility prior to application. Spray solutions were applied to the plant material with an overhead Mandel track sprayer equipped with 8002E nozzles calibrated to deliver 187 L/ha over an application area of 0.503 square meters (m^2) at a spray height of 18 to 20 inches (46 to 50 cm) above average plant canopy height. Control plants were sprayed in the same manner with the solvent blank.\n(§6) The treated plants and control plants were placed in a greenhouse as described above and watered by sub-irrigation to prevent wash-off of the test compounds. After approximately 3 weeks, the condition of the test plants as compared to that of the untreated plants was determined visually and scored on a scale of 0 to 100 percent where 0 corresponds to no injury or growth inhibition and 100 corresponds to complete kill.\n(§7) Colby's equation was used to determine the herbicidal effects expected from the mixtures (Colby, S. R. Calculation of the synergistic and antagonistic response of herbicide combinations. Weeds 1967, 15, 20-22.).\n(§8) The following equation was used to calculate the expected activity of mixtures containing two active ingredients, A and B: Expected=A+B−(A×B/100)"}, "[2]": {"test_system": "ECHCO", "assay": "Postemergence foliar-applied weed control, direct-seeded rice (greenhouse)", "format": "in vivo, Echinochloa colonum", "protocol": "as §1, §2, §3, §4, §5, §6, §7, §8"}}, "note": "Values joined by “and” are separate entries in the source; they are usually repeats but may differ in a detail not shown here. Identical values can stand only once. Like-named read-outs stand apart in the source and are kept apart here.", "data": [{"smiles": "COc1c(Cl)ccc(-c2nc(C(=O)OCc3ccccc3)c(Cl)c(N)c2F)c1F", "note": "[Compound A Benzyl Ester]", "values": [{"measurement": "Visual Weed Control (%) - 20 DAA LEFCH Obs", "setting": "[1]; 4.38 g ae/ha alone", "value": "15% and 20%"}, {"measurement": "Visual Weed Control (%) - 21 DAA LEFCH Obs", "setting": "[1]; 4.38 g ae/ha alone", "value": 10, "unit": "%"}, {"measurement": "Visual Weed Control (%) - 19 DAA LEFCH Obs", "setting": "[1]; 8 g ae/ha alone", "value": 45, "unit": "%"}, {"measurement": "Visual Weed Control (%) - 20 DAA LEFCH Obs", "setting": "[1]; 8 g ae/ha alone", "value": 15, "unit": "%"}, {"measurement": "Visual Weed Control (%) - 20 DAA LEFCH Obs", "setting": "[1]; 8.75 g ae/ha alone", "value": "30% and 35%"}, {"measurement": "Visual Weed Control (%) - 21 DAA LEFCH Obs", "setting": "[1]; 8.75 g ae/ha alone", "value": 25, "unit": "%"}, {"measurement": "Visual Weed Control (%) - 19 DAA LEFCH Obs", "setting": "[1]; 16 g ae/ha alone", "value": 45, "unit": "%"}, {"measurement": "Visual Weed Control (%) - 20 DAA LEFCH Obs", "setting": "[1]; 16 g ae/ha alone", "value": 25, "unit": "%"}, {"measurement": "Visual Weed Control (%) - 20 DAA LEFCH Obs", "setting": "[1]; 17.5 g ae/ha alone", "value": "50% and 60%"}, {"measurement": "Visual Weed Control (%) - 21 DAA LEFCH Obs", "setting": "[1]; 17.5 g ae/ha alone", "value": 30, "unit": "%"}, {"measurement": "Visual Weed Control (%) - 19 DAA LEFCH Obs", "setting": "[1]; 19 DAA, 8 g ae/ha alone", "value": 45, "unit": "%"}, {"measurement": "Visual Weed Control (%) - 19 DAA LEFCH Obs", "setting": "[1]; 19 DAA, 16 g ae/ha alone", "value": 45, "unit": "%"}, {"measurement": "Visual Weed Control (%) - 19 DAA LEFCH Obs", "setting": "[1]; 19 DAA, 32 g ae/ha alone", "value": 50, "unit": "%"}, {"measurement": "Visual Weed Control (%) - 21 DAA LEFCH Obs", "setting": "[1]; 21 DAA, 8 g ae/ha alone", "value": 15, "unit": "%"}, {"measurement": "Visual Weed Control (%) - 21 DAA LEFCH Obs", "setting": "[1]; 21 DAA, 16 g ae/ha alone", "value": 15, "unit": "%"}, {"measurement": "Visual Weed Control (%) - 21 DAA LEFCH Obs", "setting": "[1]; 21 DAA, 17.5 g ae/ha alone", "value": 50, "unit": "%"}, {"measurement": "Visual Weed Control (%) - 21 DAA LEFCH Obs", "setting": "[1]; 21 DAA, 32 g ae/ha alone", "value": 25, "unit": "%"}, {"measurement": "Visual Weed Control (%) - 19 DAA LEFCH Obs", "setting": "[1]; 32 g ae/ha alone", "value": 50, "unit": "%"}, {"measurement": "Visual Weed Control (%) - 20 DAA LEFCH Obs", "setting": "[1]; 32 g ae/ha alone", "value": 30, "unit": "%"}, {"measurement": "pest or weed control at 4.38 g/ha", "setting": "[1]; Dinebra chinensis, post-emergence, 528 h, 4.38 g ae/ha alone, read-out: Visual Weed Control (%) - 22 DAA LEFCH Obs", "value": 30, "unit": "%"}, {"measurement": "pest or weed control at 8 g/ha", "setting": "[1]; Dinebra chinensis, post-emergence, 528 h, 8 g ae/ha alone, read-out: Visual Weed Control (%) - 22 DAA LEFCH Obs", "value": 25, "unit": "%"}, {"measurement": "pest or weed control at 16 g/ha", "setting": "[1]; Dinebra chinensis, post-emergence, 528 h, 16 g ae/ha alone, read-out: Visual Weed Control (%) - 22 DAA LEFCH Obs", "value": 30, "unit": "%"}, {"measurement": "pest or weed control at 8 g/ha", "setting": "[1]; Dinebra chinensis, post-emergence, 528 h, 22 DAA, 8 g ae/ha alone, second part of Table 18, read-out: Visual Weed Control (%) - 22 DAA LEFCH Obs", "value": 18, "unit": "%"}, {"measurement": "pest or weed control at 16 g/ha", "setting": "[1]; Dinebra chinensis, post-emergence, 528 h, 22 DAA, 16 g ae/ha alone, read-out: Visual Weed Control (%) - 22 DAA LEFCH Obs", "value": 25, "unit": "%"}, {"measurement": "pest or weed control at 16 g/ha", "setting": "[1]; Dinebra chinensis, post-emergence, 528 h, 22 DAA, 16 g ae/ha alone, second part of Table 18, read-out: Visual Weed Control (%) - 22 DAA LEFCH Obs", "value": 43, "unit": "%"}, {"measurement": "pest or weed control at 32 g/ha", "setting": "[1]; Dinebra chinensis, post-emergence, 528 h, 22 DAA, 32 g ae/ha alone, read-out: Visual Weed Control (%) - 22 DAA LEFCH Obs", "value": 55, "unit": "%"}, {"measurement": "pest or weed control at 32 g/ha", "setting": "[1]; Dinebra chinensis, post-emergence, 528 h, 22 DAA, 32 g ae/ha alone, second part of Table 18, read-out: Visual Weed Control (%) - 22 DAA LEFCH Obs", "value": 53, "unit": "%"}, {"measurement": "pest or weed control at 32 g/ha", "setting": "[1]; Dinebra chinensis, post-emergence, 528 h, 32 g ae/ha alone, read-out: Visual Weed Control (%) - 22 DAA LEFCH Obs", "value": 60, "unit": "%"}, {"measurement": "Visual Weed Control (%) - 19 DAA ECHCO Obs", "setting": "[2]; 8 g ae/ha alone", "value": 65, "unit": "%"}, {"measurement": "Visual Weed Control (%) - 20 DAA ECHCO Obs", "setting": "[2]; 8 g ae/ha alone", "value": 65, "unit": "%"}, {"measurement": "Visual Weed Control (%) - 19 DAA ECHCO Obs", "setting": "[2]; 16 g ae/ha alone", "value": 90, "unit": "%"}, {"measurement": "Visual Weed Control (%) - 19 DAA ECHCO Obs", "setting": "[2]; 19 DAA, 8 g ae/ha alone", "value": 65, "unit": "%"}, {"measurement": "Visual Weed Control (%) - 19 DAA ECHCO Obs", "setting": "[2]; 19 DAA, 16 g ae/ha alone", "value": 90, "unit": "%"}, {"measurement": "Visual Weed Control (%) - 19 DAA ECHCO Obs", "setting": "[2]; 19 DAA, 32 g ae/ha alone", "value": 95, "unit": "%"}, {"measurement": "Visual Weed Control (%) - 19 DAA ECHCO Obs", "setting": "[2]; 32 g ae/ha alone", "value": 95, "unit": "%"}]}, {"smiles": "CC(c1ccc(C(F)(F)F)nc1)S(C)(=O)=NC#N", "note": "(stereo not drawn) [Sulfoxaflor, N-[methyloxido[1-[6-(trifluoromethyl)-3-pyridinyl]ethyl]-λ^4-sulfanylidene]cyanamide]", "values": [{"measurement": "Visual Weed Control (%) - 21 DAA LEFCH Obs", "setting": "[1]; 21 DAA, 12.5 g ai/ha alone", "value": 0, "unit": "%"}, {"measurement": "Visual Weed Control (%) - 21 DAA LEFCH Obs", "setting": "[1]; 21 DAA, 25 g ai/ha alone", "value": 0, "unit": "%"}, {"measurement": "Visual Weed Control (%) - 21 DAA LEFCH Obs", "setting": "[1]; 21 DAA, 37.5 g ai/ha alone", "value": 0, "unit": "%"}, {"measurement": "Visual Weed Control (%) - 21 DAA LEFCH Obs", "setting": "[1]; 21 DAA, 50 g ai/ha alone", "value": 0, "unit": "%"}, {"measurement": "Visual Weed Control (%) - 21 DAA LEFCH Obs", "setting": "[1]; 21 DAA, 75 g ai/ha alone", "value": 0, "unit": "%"}, {"measurement": "Visual Weed Control (%) - 21 DAA LEFCH Obs", "setting": "[1]; 21 DAA, 150 g ai/ha alone", "value": 0, "unit": "%"}, {"measurement": "Visual Weed Control (%) - 21 DAA ECHCO Obs", "setting": "[2]; 12.5 g ai/ha alone", "value": 0, "unit": "%"}, {"measurement": "Visual Weed Control (%) - 21 DAA ECHCO Obs", "setting": "[2]; 25 g ai/ha alone", "value": 0, "unit": "%"}, {"measurement": "Visual Weed Control (%) - 21 DAA ECHCO Obs", "setting": "[2]; 50 g ai/ha alone", "value": 0, "unit": "%"}]}, {"smiles": "COc1c(Cl)ccc(-c2nc(C(=O)O)c(Cl)c(N)c2F)c1F", "note": "[Compound A Acid, 4-amino-3-chloro-6-(4-chloro-2-fluoro-3-methoxyphenyl)-5-fluoropyridine-2-carboxylic acid]", "values": [{"measurement": "Visual Weed Control (%) - 20 DAA LEFCH Obs", "setting": "[1]; 4.38 g ae/ha alone", "value": 0, "unit": "%"}, {"measurement": "Visual Weed Control (%) - 20 DAA LEFCH Obs", "setting": "[1]; 5.3 g ae/ha alone", "value": 0, "unit": "%"}, {"measurement": "Visual Weed Control (%) - 20 DAA LEFCH Obs", "setting": "[1]; 10.6 g ae/ha alone", "value": 20, "unit": "%"}, {"measurement": "Visual Weed Control (%) - 21 DAA LEFCH Obs", "setting": "[1]; 21 DAA, 8.75 g ae/ha alone", "value": 30, "unit": "%"}, {"measurement": "Visual Weed Control (%) - 21 DAA LEFCH Obs", "setting": "[1]; 21 DAA, 17.5 g ae/ha alone", "value": 30, "unit": "%"}, {"measurement": "Visual Weed Control (%) - 20 DAA LEFCH Obs", "setting": "[1]; 21.2 g ae/ha alone", "value": 45, "unit": "%"}, {"measurement": "Visual Weed Control (%) - 22 DAA ECHCO Obs", "setting": "[2]; 4.38 g ae/ha alone", "value": 55, "unit": "%"}, {"measurement": "Visual Weed Control (%) - 21 DAA ECHCO Obs", "setting": "[2]; 4.38 g ae/ha alone", "value": 60, "unit": "%"}, {"measurement": "Visual Weed Control (%) - 21 DAA ECHCO Obs", "setting": "[2]; 8.75 g ae/ha alone", "value": 90, "unit": "%"}, {"measurement": "Visual Weed Control (%) - 21 DAA ECHCO Obs", "setting": "[2]; 17.5 g ae/ha alone", "value": 95, "unit": "%"}]}]}
